Common to all, as to type: biochemical
The target of experiment [1] is T1, human JAK1 (a.a. 837-1142) (Homo sapiens, UniProt P23458).
T1 construct: human JAK1 (a.a. 837-1142); His tag (N); made in house; host or cells: insect cells (baculovirus)
Briefly: In vitro JAK kinase assay (HTRF, phosphorylation of a biotinylated peptide), JAK1. The note with it: method AA1 (90 μM ATP) or AA2 (1000 μM ATP), not stated per value; read-out: JAK1 IC50. The gist of the method:
(§1)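 Kinase activity was measured as phosphorylation of a biotinylated peptide, with ATP at 90 μM for JAK1, 30 μM for JAK2 and 3 μM for JAK3. Reactions ran 1 hr at room temperature, were stopped with EDTA plus SA-APC and Eu-Py20, and were read by HTRF after 40 minutes of antibody binding.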

Experiment [2] addresses T2, Recombinant Human Anaplastic Lymphoma Kinase (Homo sapiens, UniProt Q9UM73).
T2 construct: purchased Invitrogen, Carlsbad, Calif
Description: ALK HTRF kinase assay. The note with it: compound at 500 nM or 1 mM; 90 μM ATP. The essentials:
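Compounds were incubated with recombinant human ALK and a biotin-tagged peptide substrate. Product was captured with streptavidin-APC and probed with a europium anti-phosphotyrosine antibody, and plates were read for time-resolved fluorescence. Dose-response data were fitted to derive IC50.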
(Time-resolved FRET reads energy transfer from a long-lived donor to a nearby acceptor.)

The next experiment has as its target TYK2 (Homo sapiens, UniProt P29597). Briefly: TYK2 kinase inhibition (Table A1).
Experiment [3] addresses T3, human JAK2 (a.a. 828-1132) (Homo sapiens, UniProt O60674).
T3 construct: JAK2 (a.a. 828-1132); His tag (N); made in house; host or cells: insect cells (baculovirus)
Briefly: In vitro JAK kinase assay (HTRF, phosphorylation of a biotinylated peptide), JAK2. As to conditions: method AA1 (30 μM ATP) or AA2 (1000 μM ATP), not stated per value. The essentials: as §1

For experiment [4], the target named is T4, human JAK3 (a.a. 781-1124) (Homo sapiens, UniProt P52333).
T4 construct: JAK3 (a.a. 781-1124); His tag (N); made in house; host or cells: insect cells (baculovirus)
T4 sequence (P52333 781-1124): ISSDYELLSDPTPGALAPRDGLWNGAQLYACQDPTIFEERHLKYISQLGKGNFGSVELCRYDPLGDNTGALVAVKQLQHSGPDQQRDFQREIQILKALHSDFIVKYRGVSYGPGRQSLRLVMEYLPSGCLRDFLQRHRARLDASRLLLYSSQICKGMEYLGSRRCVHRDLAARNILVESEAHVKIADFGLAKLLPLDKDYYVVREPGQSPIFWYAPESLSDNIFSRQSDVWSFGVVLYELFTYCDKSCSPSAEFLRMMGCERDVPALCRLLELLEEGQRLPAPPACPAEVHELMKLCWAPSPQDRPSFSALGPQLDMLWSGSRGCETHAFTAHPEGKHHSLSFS
Briefly: In vitro JAK kinase assay (HTRF, phosphorylation of a biotinylated peptide), JAK3. As to conditions: method AA1 (3 μM ATP) or AA2 (1000 μM ATP), not stated per value. The essentials:
as §1

T1 sequence (P23458 849-1154): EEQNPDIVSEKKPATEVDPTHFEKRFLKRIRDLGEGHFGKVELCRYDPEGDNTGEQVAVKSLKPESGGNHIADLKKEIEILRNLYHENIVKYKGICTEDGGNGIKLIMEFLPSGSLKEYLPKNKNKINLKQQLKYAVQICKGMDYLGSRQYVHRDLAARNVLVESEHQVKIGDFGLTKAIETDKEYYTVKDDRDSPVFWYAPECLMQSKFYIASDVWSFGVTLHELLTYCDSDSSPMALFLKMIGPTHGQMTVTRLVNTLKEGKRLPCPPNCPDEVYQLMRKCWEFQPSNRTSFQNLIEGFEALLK
T3 sequence (O60674 828-1132): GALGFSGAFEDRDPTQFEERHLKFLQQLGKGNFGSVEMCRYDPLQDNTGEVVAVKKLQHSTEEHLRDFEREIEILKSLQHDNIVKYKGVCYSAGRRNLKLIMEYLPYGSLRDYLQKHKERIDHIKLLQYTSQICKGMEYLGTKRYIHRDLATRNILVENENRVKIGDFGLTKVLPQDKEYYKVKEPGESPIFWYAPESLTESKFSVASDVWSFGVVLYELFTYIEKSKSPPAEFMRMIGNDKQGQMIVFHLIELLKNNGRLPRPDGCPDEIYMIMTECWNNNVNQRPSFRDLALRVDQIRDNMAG
T2 sequence (Q9UM73 19-1620): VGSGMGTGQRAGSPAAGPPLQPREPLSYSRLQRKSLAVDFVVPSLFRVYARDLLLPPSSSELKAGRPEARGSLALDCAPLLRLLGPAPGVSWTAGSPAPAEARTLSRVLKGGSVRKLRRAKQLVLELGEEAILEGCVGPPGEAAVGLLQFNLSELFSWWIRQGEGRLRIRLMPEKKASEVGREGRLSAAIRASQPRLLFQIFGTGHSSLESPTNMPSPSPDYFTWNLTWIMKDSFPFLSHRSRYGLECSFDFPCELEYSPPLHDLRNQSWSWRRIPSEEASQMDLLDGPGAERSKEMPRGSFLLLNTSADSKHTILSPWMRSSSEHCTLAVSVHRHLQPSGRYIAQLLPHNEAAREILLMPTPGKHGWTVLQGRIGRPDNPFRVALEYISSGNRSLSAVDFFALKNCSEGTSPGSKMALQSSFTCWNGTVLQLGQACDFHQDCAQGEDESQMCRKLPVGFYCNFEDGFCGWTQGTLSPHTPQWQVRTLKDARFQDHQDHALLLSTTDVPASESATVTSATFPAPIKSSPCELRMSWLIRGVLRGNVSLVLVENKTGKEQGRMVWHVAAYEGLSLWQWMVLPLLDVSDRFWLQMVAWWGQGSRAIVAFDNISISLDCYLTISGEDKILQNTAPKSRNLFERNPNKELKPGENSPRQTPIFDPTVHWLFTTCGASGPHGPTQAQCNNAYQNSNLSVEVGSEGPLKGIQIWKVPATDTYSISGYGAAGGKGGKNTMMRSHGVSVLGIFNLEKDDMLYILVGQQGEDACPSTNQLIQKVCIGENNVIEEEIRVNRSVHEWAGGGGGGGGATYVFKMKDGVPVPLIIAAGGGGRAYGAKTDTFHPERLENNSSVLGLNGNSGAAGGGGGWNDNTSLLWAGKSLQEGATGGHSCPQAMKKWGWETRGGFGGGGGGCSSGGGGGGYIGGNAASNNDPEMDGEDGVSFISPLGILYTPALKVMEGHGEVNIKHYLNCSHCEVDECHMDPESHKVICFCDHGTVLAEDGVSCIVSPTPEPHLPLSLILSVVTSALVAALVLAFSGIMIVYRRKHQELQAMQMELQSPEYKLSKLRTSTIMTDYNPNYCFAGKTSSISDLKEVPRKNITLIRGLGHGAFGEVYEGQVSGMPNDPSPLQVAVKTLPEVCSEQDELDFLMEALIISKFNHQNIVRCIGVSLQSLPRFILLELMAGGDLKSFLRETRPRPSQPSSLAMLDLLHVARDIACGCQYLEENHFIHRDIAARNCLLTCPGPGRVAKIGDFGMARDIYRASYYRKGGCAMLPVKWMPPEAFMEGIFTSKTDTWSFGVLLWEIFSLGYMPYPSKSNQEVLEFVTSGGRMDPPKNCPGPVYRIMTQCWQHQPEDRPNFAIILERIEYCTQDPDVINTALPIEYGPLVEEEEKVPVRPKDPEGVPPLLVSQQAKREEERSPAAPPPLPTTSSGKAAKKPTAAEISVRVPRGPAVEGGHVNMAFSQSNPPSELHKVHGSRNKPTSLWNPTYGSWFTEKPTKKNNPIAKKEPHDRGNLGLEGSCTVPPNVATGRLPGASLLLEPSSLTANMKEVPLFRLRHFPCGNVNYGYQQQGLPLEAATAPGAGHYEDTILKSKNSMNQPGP
Chain of TYK2 (P29597 whole entry): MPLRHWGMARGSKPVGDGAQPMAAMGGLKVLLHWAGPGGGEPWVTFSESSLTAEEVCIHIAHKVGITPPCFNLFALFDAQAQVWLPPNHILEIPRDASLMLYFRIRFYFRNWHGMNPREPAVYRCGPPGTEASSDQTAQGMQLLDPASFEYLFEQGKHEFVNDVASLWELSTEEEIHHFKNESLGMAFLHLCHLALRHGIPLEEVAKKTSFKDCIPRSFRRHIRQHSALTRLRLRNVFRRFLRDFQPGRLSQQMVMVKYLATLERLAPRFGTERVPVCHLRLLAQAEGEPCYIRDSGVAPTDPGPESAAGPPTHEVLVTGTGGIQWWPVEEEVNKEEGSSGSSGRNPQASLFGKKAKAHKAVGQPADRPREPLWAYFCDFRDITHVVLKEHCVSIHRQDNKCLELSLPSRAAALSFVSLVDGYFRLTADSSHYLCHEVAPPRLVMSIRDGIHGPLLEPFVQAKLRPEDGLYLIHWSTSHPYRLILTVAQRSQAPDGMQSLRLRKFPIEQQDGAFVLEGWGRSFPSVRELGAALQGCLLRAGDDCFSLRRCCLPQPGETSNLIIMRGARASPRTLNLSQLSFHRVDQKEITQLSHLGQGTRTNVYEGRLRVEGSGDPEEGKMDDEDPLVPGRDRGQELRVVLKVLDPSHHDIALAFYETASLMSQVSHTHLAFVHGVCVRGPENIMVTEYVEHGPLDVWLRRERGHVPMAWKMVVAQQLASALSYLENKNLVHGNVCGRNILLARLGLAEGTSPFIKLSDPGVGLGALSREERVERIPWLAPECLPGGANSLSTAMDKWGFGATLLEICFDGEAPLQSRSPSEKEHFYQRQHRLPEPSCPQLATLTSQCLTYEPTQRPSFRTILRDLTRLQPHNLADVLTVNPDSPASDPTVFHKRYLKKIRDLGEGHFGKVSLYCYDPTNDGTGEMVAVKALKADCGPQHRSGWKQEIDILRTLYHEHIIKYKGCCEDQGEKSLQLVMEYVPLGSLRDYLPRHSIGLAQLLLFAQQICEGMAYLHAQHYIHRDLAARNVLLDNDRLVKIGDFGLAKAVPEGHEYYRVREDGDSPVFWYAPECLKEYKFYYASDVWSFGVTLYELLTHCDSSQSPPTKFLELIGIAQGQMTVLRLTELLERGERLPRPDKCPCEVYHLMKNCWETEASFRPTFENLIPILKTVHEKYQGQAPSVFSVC

Consider `NCCC(=O)Nc1ccc2cc1CCc1cccc(c1)Nc1ncc(Cl)c(n1)N2` [Example A108, 3-Amino-N-[6-chloro-2,4,8,22-tetraazatetracyclo[14.3.1.1(3,7).1(9,13)]docosa-1(20),3(22),4,6,9(21),10,12,16,18-nonaen-12-yl]propanamide bis(trifluoroacetate)], for which the half-inhibitory concentration (IC50) in experiment [1] came out at 6 nM; against TYK2, 15 nM; in experiment [3], 32 nM; in experiment [4], 26 nM. The “ALK % of inhibition at a concentration of 500 nM or 1 mM” value (shortened to “ALK % of inhibition”) in experiment [2] came out at 32%.
Take `N[C@@H](CO)C(=O)Nc1ccc2cc1CCc1cccc(c1)Nc1ncc(Cl)c(n1)N2` [Example A109, (2S)-2-Amino-N-[6-chloro-2,4,8,22-tetraazatetracyclo[14.3.1.1(3,7).1(9,13)]docosa-1(20),3(22),4,6,9(21),10,12,16,18-nonaen-12-yl]-3-hydroxypropanamide bis(trifluoroacetate)]: the IC50 in experiment [1] was determined as 5 nM; against TYK2 it was 7.5 nM; in experiment [3], 11 nM; in experiment [4] it was 7.3 nM. Besides, the “ALK % of inhibition” value in experiment [2] is listed as 33%.
Consider `O=C(Nc1ccc2cc1CCc1cccc(c1)Nc1ncc(Cl)c(n1)N2)[C@@H]1CCCN1` [Example A110, (2S)—N-[6-Chloro-2,4,8,22-tetraazatetracyclo[14.3.1.1(3,7).1(9,13)]docosa-1(20),3(22),4,6,9(21),10,12,16,18-nonaen-12-yl]pyrrolidine-2-carboxamide bis(trifluoroacetate)], for which the IC50 was 32 nM in experiment [1], 15 nM at TYK2, 26 nM in experiment [3] and 14 nM in experiment [4]. Moreover, in experiment [2], the “ALK % of inhibition” value is on record as 45%.
In the case of `C[N+]1(C)CCC(CC(=O)Nc2ccc3cc2CCc2cccc(c2)Nc2ncc(Cl)c(n2)N3)CC1` [Example A111, 4-(2-{[6-Chloro-2,4,8,22-tetraazatetracyclo[14.3.1.1(3,7).1(9,13)]docosa-1(20),3(22),4,6,9(21),10,12,16,18-nonaen-12-yl]amino}-2-oxoethyl)-1,1-dimethylpiperidinium bis(trifluoroacetate)], the IC50 in experiment [1] worked out at 45 nM; at TYK2, 148 nM; in experiment [3], 103 nM; in experiment [4], 298 nM. Further, the “ALK % of inhibition” value in experiment [2] worked out at 23%.
For `CC(C)(C)C(=O)N1CCC(CC(=O)Nc2ccc3cc2CCc2cncc(c2)Nc2ncc(Cl)c(n2)N3)CC1` [Example A112, N-[6-Chloro-2,4,8,18,22-pentaazatetracyclo[14.3.1.1(3,7).1(9,13)]docosa-1(20),3(22),4,6,9(21),10,12,16,18-nonaen-12-yl]-2-[1-(2,2-dimethylpropanoyl)piperidin-4-yl]acetamide bis(trifluoroacetate)], in that order: 8 nM, 61 nM, 38 nM, 239 nM and 20%.
In the case of `CC(C)(C)NC(=O)N1CCC(CC(=O)Nc2ccc3cc2CCc2cncc(c2)Nc2ncc(Cl)c(n2)N3)CC1` [Example A113, N-(tert-Butyl)-4-(2-{[6-chloro-2,4,8,18,22-pentaazatetracyclo[14.3.1.1(3,7).1(9,13)]docosa-1(20),3(22),4,6,9(21),10,12,16,18-nonaen-12-yl]amino}-2-oxoethyl)piperidine-1-carboxamide bis(trifluoroacetate)], the IC50 in experiment [1] was found to be 17 nM; against TYK2, 61 nM; in experiment [3] it was 54 nM; in experiment [4], 238 nM. In addition, the “ALK % of inhibition” value in experiment [2] worked out at 14%.
Consider `O=C(CN1CCNCC1)Nc1ccc2cc1CCc1cccc(c1)Nc1ncc(Cl)c(n1)N2` [Example A114, tris(trifluoroacetate)], for which the half-maximal inhibitory concentration (IC50) in experiment [1] was 25 nM; against TYK2 it was 33 nM; in experiment [3], 13 nM; in experiment [4], 59 nM. The “ALK % of inhibition” value in experiment [2] is reported as 19%.

Broadly, the IC50 is the concentration at which inhibition is half-maximal.

(Values after patent US8871753B2, “Macrocyclic compounds and their use as kinase inhibitors” (Incyte Corporation, priority 2008, dated 2014).)
